Assay results taken from PMC3068151 (PLoS ONE, 2011).

Tests used:
EphA2-ephrinA1 binding = target: T1, EphA2-ephrinA1 binding (Mus musculus, UniProt Q03145); assay: ELISA EphA2-ephrinA1 binding (displacement and saturation)
T1 construct: we immobilized EphA2-Fc- ectodomain on proper ELISA plates; purchased R&D systems 639-A2 (EphA2-Fc); BT602 (biotinylated ephrinA1-Fc)
Method: (§1) Our chemical collection (Table S1) was stocked in a 20 mM dimethyl sulfoxide (DMSO) solution and we performed binding assay at a concentration of 200 µM. Only compounds displacing more than 40% ephrinA1 from EphA2 receptor were considered for a full concentration-binding curve. […] The day after wells were washed three times with washing buffer (PBS +0.05% tween20, pH 7.5) and blocked with 300 µl of blocking solution (PBS +0.5% BSA) for 1 hour at 37°C. Compounds were added to the wells at proper concentration in 1% dimethyl sulfoxide (DMSO) and incubated at 37°C for 1 hour. Biotinylated ephrinA1-Fc (R&D BT602) was added at 37°C for 4 hours at 30 ng/ml in displacement assays or in a range from 1 to 2000 ng/ml in saturation studies. […] The reaction was stopped with 3N HCl 100 µl/well and the absorbance was measured using an ELISA plate reader (Sunrise, TECAN, Switzerland) at 450 nm.
The IC50 value was determined using one-site competition non-linear regression and Kd values of the curves with or without antagonists were calculated using one-binding site non-linear regression analysis with Prism software (GraphPad Software Inc.). The Ki was obtained using Schild plot where Log[DR-1] is a function of the negative Log10 of the inhibitor concentration. The Hill's coefficient was calculated using linear fitting to evaluate whether the inhibition was competitive or uncompetitive.
To identify compounds interfering with EphA2-ephrinA1 binding we immobilized EphA2-Fc- ectodomain on proper ELISA plates and binding of biotinylated-ephrin-A1-Fc was detected using the colorimetric reaction developed by streptavidine-HRP and tetramethylbenzidine.

EphA kinases = assay: ELISA displacement of biotinylated ephrinA1-Fc from immobilized EphA-Fc ectodomains; format: binding; conditions: biotinylated ephrinA1-Fc at KD concentration
Method: as §1
Data are the means of at least three independent experiments ± st. err.

EphB kinases = assay: ELISA displacement of biotinylated ephrinB1-Fc from immobilized EphB-Fc ectodomains; format: binding; conditions: biotinylated ephrinB1-Fc at KD concentration
EphA2 [1] = target: T2, EphA2 (Homo sapiens, UniProt P29317); conditions: up to 100 µM
Method: Recombinant human EphA2 enzyme activity was evaluated with LANCE® method using ATP and Ulight-TK peptide as substrate (http://las.perkinelmer.com/).

EGFR = EGFR (Homo sapiens, UniProt P00533); assay: Phosphorylated-EGFR sandwich ELISA in PC3 cells; format: cell-based; conditions: 100 µM, 30 ng/ml EGF
Method: (§2) Cells were seeded in 12-well plates at concentration of 10^5cells/ml in complete medium until they reached ∼40% confluence and serum starved overnight. The day after cells were treated with compounds under study, vehicle or standard drug, stimulated with the proper agonist, rinsed with sterile PBS and solubilized in lysis buffer. The lysates were resuspended and rocked at 4°C for 30 minutes and then centrifuged at 14000 xg for 5 minutes. The protein content of supernatant was measured with BCA protein assay kit (Thermo scientific), standardized to 200 µg/ml and transferred into a clean test tube ready to be used.
(§3) EphA2-, EphB4- and EGFR-phosphorylation were measured in cell lysates using DuoSet®IC Sandwich ELISA (RnD Systems, #DYC4056, #DYC4057 and #DYC1095, respectively) following manufacturer's protocol. […] The day after wells were washed and blocked for 1 hour at room temperature. After that, wells were washed and 100 µl/well of lysates were added at room temperature for 2 hours; wells were washed and incubated with Detection Antibody at room temperature for 2 hours.
(§4) A, B) EGFR phosphorylation was induced by 30 ng/ml and 10 ng/ml EGF on PC3 (A) and HT29 (B) cells, respectively. […] Data are the means of two experiments ± st. err.

IRKβ = target: T3, IRKβ (Homo sapiens, UniProt P06213); assay: IRKβ activity, alpha Technology; format: cell-based; conditions: 100 µM, 100 nM insulin
T3 construct: in HepG2 or A431 cells, respectively; endogenous in cells; host or cells: HepG2 according to b24; A431 according to the order in the legend b55
Method: Cells were stimulated with 5 nM IGF1 or 100 nM insulin for 10 minutes, lysed and a fluorescence acceptor (alphaLISA protein A beads coated with anti-phospho-IRKβ or -IGFR1β) added for 2 hours. A fluorescence donor (streptavidin coupled-beads) coated with an antibody towards IRKβ or IGFR1β was incubated for 2 hours and the signal was measured at λex = 680 nm and λem = 500 nm and 600 nm using a microplate reader (EnVision, Perkin Elmer, Waltham, MA, USA).
These assays were performed at CEREP (Celle L'Evescault, France).
as §4

EphA2 [2] = target: T2, EphA2; assay: Phosphorylated-EphA2 sandwich ELISA in PC3 cell lysates; format: cell-based; parameters: their known ability to naturally express EphA2; endogenous in cells; host or cells: PC3 (A5); conditions: PC3 cells
Method: as §2, §3
EphB4 phosphorylation was stimulated with 3 µg/ml ephrinB2-Fc, preclustered with 0.3 µg/ml IgG Fc fragment on T47D cells (G, H, I). […] Phospho-EphA2/B4 levels are relative to ephrinA1/B2-Fc+DMSO. Data are the means of at least three independent experiment ± st. err. One-way ANOVA followed by Dunnet's post test was performed comparing Fc to all other columns for Fig A, D, G and ephrinA1-Fc+DMSO to all other columns for Fig B,C,E, F, H, I. *, p<0.05, **, p<0.01.

T1 sequence (Q03145 26-538 limits assumed): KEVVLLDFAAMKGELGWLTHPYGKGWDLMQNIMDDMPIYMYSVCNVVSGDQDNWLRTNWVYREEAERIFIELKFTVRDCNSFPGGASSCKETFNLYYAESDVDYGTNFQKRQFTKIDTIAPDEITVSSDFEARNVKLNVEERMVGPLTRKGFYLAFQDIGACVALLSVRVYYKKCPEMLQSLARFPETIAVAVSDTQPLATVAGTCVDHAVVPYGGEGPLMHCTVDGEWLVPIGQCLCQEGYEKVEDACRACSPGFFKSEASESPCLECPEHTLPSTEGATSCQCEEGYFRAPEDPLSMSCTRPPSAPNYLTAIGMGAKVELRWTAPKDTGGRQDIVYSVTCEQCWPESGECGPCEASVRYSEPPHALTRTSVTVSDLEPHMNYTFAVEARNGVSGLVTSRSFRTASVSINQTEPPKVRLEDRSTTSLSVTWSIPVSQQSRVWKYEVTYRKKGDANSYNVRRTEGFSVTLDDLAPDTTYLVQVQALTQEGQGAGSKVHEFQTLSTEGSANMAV
T2 sequence (P29317 24-976): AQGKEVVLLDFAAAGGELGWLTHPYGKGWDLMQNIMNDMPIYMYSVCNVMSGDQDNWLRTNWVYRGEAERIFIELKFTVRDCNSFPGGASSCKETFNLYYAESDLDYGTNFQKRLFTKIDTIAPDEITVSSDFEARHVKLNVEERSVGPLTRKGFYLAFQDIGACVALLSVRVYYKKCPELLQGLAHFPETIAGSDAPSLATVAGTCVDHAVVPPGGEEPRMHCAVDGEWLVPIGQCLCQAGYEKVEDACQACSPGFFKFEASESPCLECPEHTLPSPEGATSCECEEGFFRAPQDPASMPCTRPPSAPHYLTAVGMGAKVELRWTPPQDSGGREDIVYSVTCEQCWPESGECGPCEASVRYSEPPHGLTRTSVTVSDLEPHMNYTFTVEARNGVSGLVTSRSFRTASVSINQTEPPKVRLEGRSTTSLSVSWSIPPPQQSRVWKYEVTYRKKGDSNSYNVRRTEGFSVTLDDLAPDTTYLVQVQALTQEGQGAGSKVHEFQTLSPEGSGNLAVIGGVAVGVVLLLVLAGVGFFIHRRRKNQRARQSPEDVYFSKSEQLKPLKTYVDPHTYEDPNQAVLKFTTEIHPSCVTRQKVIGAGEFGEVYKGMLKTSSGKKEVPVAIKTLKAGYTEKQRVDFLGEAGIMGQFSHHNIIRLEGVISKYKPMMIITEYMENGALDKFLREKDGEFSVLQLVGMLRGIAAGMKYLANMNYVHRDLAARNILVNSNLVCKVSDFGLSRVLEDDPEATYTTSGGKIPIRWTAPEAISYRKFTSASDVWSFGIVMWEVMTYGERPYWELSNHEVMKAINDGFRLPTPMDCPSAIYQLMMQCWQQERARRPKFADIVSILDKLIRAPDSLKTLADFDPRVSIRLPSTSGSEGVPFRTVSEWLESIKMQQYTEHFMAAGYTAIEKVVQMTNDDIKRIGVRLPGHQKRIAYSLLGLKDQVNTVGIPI
T3 sequence (P06213 763-1382 limits assumed): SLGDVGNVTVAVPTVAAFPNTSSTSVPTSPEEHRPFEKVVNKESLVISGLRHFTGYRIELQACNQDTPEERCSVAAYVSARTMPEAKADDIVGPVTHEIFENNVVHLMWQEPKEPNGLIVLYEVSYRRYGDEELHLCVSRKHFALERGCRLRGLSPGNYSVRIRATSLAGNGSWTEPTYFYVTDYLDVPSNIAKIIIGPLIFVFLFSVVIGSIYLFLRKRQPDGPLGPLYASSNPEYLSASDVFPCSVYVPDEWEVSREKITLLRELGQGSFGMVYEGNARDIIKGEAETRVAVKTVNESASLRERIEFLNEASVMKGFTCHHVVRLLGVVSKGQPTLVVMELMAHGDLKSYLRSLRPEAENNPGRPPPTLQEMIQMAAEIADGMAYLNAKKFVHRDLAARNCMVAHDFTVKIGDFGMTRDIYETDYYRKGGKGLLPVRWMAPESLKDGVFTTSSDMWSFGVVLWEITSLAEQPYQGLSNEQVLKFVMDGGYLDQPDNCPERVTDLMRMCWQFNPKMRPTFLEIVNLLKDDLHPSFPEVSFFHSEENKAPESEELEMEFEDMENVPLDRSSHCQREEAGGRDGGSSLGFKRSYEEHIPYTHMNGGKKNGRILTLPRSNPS
T3 sequence (P06213 28-758 partner limits assumed): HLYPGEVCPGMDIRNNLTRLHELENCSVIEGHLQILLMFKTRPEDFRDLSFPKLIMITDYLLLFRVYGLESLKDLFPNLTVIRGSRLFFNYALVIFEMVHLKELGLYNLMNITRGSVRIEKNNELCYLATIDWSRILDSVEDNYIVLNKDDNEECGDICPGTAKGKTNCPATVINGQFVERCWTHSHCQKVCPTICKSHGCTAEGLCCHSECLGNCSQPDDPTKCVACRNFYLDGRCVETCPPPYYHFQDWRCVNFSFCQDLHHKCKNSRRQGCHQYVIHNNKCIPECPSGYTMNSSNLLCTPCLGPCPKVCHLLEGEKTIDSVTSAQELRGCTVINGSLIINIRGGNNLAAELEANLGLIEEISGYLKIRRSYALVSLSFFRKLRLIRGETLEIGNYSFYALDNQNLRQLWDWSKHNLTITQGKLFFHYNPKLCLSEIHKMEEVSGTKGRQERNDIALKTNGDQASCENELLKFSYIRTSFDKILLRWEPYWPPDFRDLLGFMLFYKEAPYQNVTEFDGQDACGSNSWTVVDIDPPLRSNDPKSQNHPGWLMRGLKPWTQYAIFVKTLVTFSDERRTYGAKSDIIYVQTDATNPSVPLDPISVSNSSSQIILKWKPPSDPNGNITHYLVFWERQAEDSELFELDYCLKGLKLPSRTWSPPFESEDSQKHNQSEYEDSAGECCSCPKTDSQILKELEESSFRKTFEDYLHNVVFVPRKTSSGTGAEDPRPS
EGFR, sequence (P00533 25-1210): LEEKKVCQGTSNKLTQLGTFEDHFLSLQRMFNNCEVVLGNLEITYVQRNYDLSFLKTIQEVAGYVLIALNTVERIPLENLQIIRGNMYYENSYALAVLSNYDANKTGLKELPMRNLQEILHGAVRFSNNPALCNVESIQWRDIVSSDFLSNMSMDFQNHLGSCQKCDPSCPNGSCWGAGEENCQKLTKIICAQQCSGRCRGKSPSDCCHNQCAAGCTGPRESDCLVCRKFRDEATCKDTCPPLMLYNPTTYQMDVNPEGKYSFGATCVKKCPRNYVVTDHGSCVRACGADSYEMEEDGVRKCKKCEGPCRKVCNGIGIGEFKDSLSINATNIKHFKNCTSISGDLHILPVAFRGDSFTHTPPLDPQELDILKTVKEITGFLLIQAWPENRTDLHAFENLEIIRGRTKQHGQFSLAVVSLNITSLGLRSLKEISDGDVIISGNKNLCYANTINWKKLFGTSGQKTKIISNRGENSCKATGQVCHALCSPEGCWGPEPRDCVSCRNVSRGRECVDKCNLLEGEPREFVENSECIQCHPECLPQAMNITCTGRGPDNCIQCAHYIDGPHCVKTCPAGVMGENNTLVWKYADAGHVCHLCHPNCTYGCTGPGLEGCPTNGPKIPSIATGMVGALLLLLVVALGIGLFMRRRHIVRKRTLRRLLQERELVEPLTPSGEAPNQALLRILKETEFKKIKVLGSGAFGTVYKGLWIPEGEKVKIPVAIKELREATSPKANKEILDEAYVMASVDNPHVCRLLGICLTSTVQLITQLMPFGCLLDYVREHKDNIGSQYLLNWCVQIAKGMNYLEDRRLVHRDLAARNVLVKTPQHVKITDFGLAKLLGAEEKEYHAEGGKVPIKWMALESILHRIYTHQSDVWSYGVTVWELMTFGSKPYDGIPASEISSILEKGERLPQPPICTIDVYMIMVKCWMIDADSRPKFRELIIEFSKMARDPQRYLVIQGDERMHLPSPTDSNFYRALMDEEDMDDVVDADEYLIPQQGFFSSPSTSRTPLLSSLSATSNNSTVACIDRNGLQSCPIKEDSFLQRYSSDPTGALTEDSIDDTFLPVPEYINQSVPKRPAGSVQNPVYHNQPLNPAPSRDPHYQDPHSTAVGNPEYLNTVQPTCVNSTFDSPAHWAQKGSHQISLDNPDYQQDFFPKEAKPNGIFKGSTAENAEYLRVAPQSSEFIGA

C[C@H](CCC(=O)O)[C@H]1CC[C@H]2[C@@H]3CC[C@@H]4C[C@H](O)CC[C@]4(C)[C@H]3CC[C@]12C [LCA, lithocholic acid]
reduction of EphA2-ephrinA1 binding (library screening) (EphA2-ephrinA1 binding; 200 µM, incubated 1 hour): significantly reduce
decrease of EphA2-ephrinA1 binding (EphA2-ephrinA1 binding; bile acids, repeat of the 200 µM experiment): 68.2%±4.3
Ki (EphA2-ephrinA1 binding; corresponding to pKi, read-out: Ki (Schild plot)): 49 µM
IC50 (EphA2-ephrinA1 binding; read-out: IC50 displacement of biotinylated-ephrinA1-Fc from EphA2): 57 µM
slope of Schild plot (EphA2-ephrinA1 binding; saturation curves with increasing LCA, r^2 = 0.9664): 0.8618
displacement of ephrin-A1-Fc ectodomain from immobilized EphA-Fc ectodomains (EphA kinases): dose-dependently displaced
displacement of ephrin-B1-Fc ectodomain from immobilized EphB-Fc ectodomains (EphB kinases): dose-dependently displaced
effect on EphA2 enzymatic activity (EphA2 [1]): did not modify enzymatic activity
effect on EGF-induced EGFR phosphorylation (EGFR): completely inactive
effect on IRKβ activity as agonist or antagonist (IRKβ): failed to affect activity
inhibition of EphA2 phosphorylation (EphA2 [2]; 10 µM): subthreshold
inhibition of EphA2 phosphorylation (EphA2 [2]; 100 µM): inhibiting completely
